Tests used:
[1] = In vitro dissolution test (paddle method); format: physicochemical; settings: cumulative in vitro dissolution rate, 0.1 N HCl and 10 mM SDS, 37° C., 50 rpm
Experimental: The dissolution medium was a solution of 0.1 N hydrochloric acid (HCl) and 10 mM sodium dodecyl sulfonate (SDS). The instrument used in the test was RC-6 dissolution rate apparatus (Tianjin). The instrument parameters were set to 37° C., 50 rpm, the paddle method. To each dissolution vessel was added 900 ml of dissolution medium followed by initiating the instrument. When the temperature of the medium in each vessel reached 37° C., corresponding testing sample was added. One ml of sample solution was taken out at time points of 10, 20, 40, 60, 90, 120, 180, 240 and 270 minute respectively, and then 1 ml of dissolution medium was added back to supplement the vessel volume. The sample solutions collected from dissolution testing was passed through a 0.45 μm filter and the filtrate was analyzed by HPLC (Agilent, 1260) to determine the amount of DQ. An isocratic mobile phase of 80% ethanol and 20% water and a wavelength 260 nm were chosen for HPLC analysis.

[2] = Thermogravimetric analysis; format: physicochemical; settings: at 250.5° C., heating rate 10° C./min, nitrogen
Experimental: The pure DQ was weighed for thermogravimetric analysis. The instruments used in the analysis included a balance with 0.0001 accuracy (Sartorius, available from Sartorius Scientific Instruments, Model: BSA124S) and a thermogravimetric analyzer (NETZSCH, Model: TG209F1, Germany).
Detection conditions, nitrogen: 20 mL/min, scanning procedures: temperature was increased to 350° C. from room temperature, heating rate: 10° C./min; detection was performed based on the General Rules for Thermal Analysis JY/T014-1996.

[3] = system: Plasmodium berghei ANKA; assay: In vivo efficacy experiment, mice inoculated with sporozoites; settings: NIH female mice, after 21 days; DQ 3, 10, 30 mg/kg; primaquine 30 mg/kg
Experimental: The NIH female mice used for the experiment were raised at least for 7 days after arrival. At the start of experiment, the mice were 7 weeks old. Only one mouse was housed in each cage maintained in a room with a temperature range of 18 to 26° C., a relative humidity of 34% to 68% in a 12/12 h light-dark cycle. Food and water were provided ad libitum during quarantine and throughout the study. This experiment was carried out in strict accordance with the relevant animal testing regulations (Guide for the Care and Use of Laboratory Animals, NRC publication, 2011 edition). The DQ suspension used in the animal experiment was from the product of Example 1, prepared with saline and subjected to ultrasonic treatment for 5 minutes. […] The detection of Plasmodium parasitemia was performed as follows: conventional method was used to count red blood cells per mm^3 of blood in that a thin film of blood was prepared and stained with 3% Giemsa for 20 minutes; and then the number of infected red blood cells per 1000 red blood cells was counted under oil microscope to obtain erythrocyte infected rate (EIR, %o). Survival rate was calculated on day 22 post-infection.
The dosage of product of Example 1 was calculated based on decoquinate mg/kg body weight, the negative control group used was saline, and the positive control group used 30 mg primaquine per kg body weight. […]

CCCCCCCCCCOc1cc2c(O)c(C(=O)OCC)cnc2cc1OCC [Pure DQ, Decoquinate]
Dissolved at 60 min ([1]; 60 min): 6.87
Dissolved at 90 min ([1]; 90 min): 14.60
amount of DQ remaining by weight in thermogravimetric analysis [2]: 99 % by weight

COc1cc(NC(C)CCCN)c2ncccc2c1 (stereo not shown) [primaquine]
animal survival [3]: all animals survived

Reference: patent US10265270B2, “Solid dispersion of decoquinate, a preparation process and its application” (GUANGZHOU CAS LAMVAC BIOTECH CO., LTD., priority 2015, dated 2019)
